Data set [1] concerns P. putida PhoA5. In kind it is cell-based, Pseudomonas putida. The settings on record: for tolerance to amino acid: gradient 0 to 50 g/L; for tolerance to paraben: same gradients; for concentration that the strain tolerated: aromatic carboxylic acid gradient, 20 h at 30° C.
The test system of data set [2] is Pseudomonas putida DOT-T1E (wild-type). In kind it is cell-based. The settings on record: for tolerance to amino acid / tolerance to paraben: T1E; for tolerance to amino acid: gradient 0 to 50 g/L; for tolerance to paraben: gradient up to 2, 1.54, 0.8, 0.3 g/L for methyl-, ethyl-, propyl-, butylparaben; for concentration that the strain tolerated: Wild-type, aromatic carboxylic acid gradient, 20 h at 30° C.

The subject of data set [3] is PhoA5 pPAT7. Type of data set: cell-based, Pseudomonas putida. The settings on record: for tolerance to paraben / tolerance to amino acid: PhoA5 pPAT7; for tolerance to paraben: same gradients; for tolerance to aromatic carboxylic acids: PhoA5(pPAT7), double diffusion plates; for tolerance to amino acid: gradient 0 to 50 g/L.
The subject of data set [4] is T1E pPAT7. In kind it is cell-based, Pseudomonas putida. The following applies: for tolerance to paraben: same gradients; for tolerance to amino acid: gradient 0 to 50 g/L.
In data set [5] the test system is Pseudomonas putida DOT-T1E. The data set is described as follows: Halo-inhibition test with antibiotic disks on minimal medium. Type of data set: cell-based. The settings on record: for size of the inhibition halo: strain T1E, 6-mm disks, µg per disk as, minimal medium; for tolerance/sensitivity to antibiotic: wild-type, Halo-inhibition test.
For data set [6] the following is noted: octanol-water; cited from earlier work.
Data set [7] deals with adapted strain. The following applies: after 11 transfers; slow rate.
Data set [8] relates to PhoA5 mutant. The settings on record: 3 μg/mL EDDHA, M9 with glucose; overcome by adding Fe-citrate.
Data set [9] concerns wild-type strain (DOT-T1E). The settings on record: 3 μg/mL EDDHA, M9 with glucose.

Read-outs that look alike come from different tables or passages of the source.

On to `N[C@@H](Cc1ccc(O)cc1)C(=O)O` [Tyrosine, L-tyrosine], for which the “tolerance to amino acid” value in data set [1] is listed as 25.3 g/L; in data set [1] (listed as tyrosine), “about 23 g/L”; in data set [2], “about 40 g/L”.

As for `CCCCOC(=O)c1ccc(O)cc1` [BP, butylparabene], the tolerance to paraben was over 0.3 g/L in data set [3]; over 0.3 g/L in data set [1]; at least 0.3 g/L in data set [1] (listed as butylparaben); over 0.3 g/L in data set [2]; over 0.3 g/L in data set [4].

In the case of `[H]/N=C(/N)N[C@H]1[C@H](O)[C@@H](O)[C@H](O[C@@H]2O[C@@H](C)[C@](O)(C=O)[C@H]2O[C@@H]2O[C@@H](CO)[C@H](O)[C@@H](O)[C@@H]2NC)[C@@H](N/C(N)=N\[H])[C@@H]1O` [SM, streptomycin], in data set [5], the “size of the inhibition halo” value is given as 16 mm and the “tolerance/sensitivity to antibiotic” value is given as “equally sensitive”.

Turning to `CCCOC(=O)c1ccc(O)cc1` [PB, propylparabene], the tolerance to paraben in data set [3] was over 0.8 g/L; in data set [1] it was over 0.8 g/L; in data set [1] (listed as propylparaben), “at least 0.8 g/L”; in data set [2], over 0.8 g/L; in data set [4], over 0.8 g/L.

On to `CCc1ccccc1` [ethylbenzene], for which the “log Pow” value in data set [6] is 3.1.

As to `O=C(O)c1cn(C2CC2)c2cc(N3CCNCC3)c(F)cc2c1=O` [CIP, ciprofloxacine], in data set [5], the “size of the inhibition halo” value is 21 mm and the “tolerance/sensitivity to antibiotic” value is reported as “sensitive”.

Take `CCCCCCCCO` [1-octanol]: the “log Pow” value in [6] was 2.8.

In the case of `CCOC(=O)c1ccc(O)cc1` [EB, ethylparabene], the tolerance to paraben in data set [3] is recorded as 1.54 g/L; in data set [3] (listed as ethylparaben), “as tolerant as the wild-type strain”; in data set [1], about 1.4 g/L; in data set [2], over 1.54 g/L.

`COc1ccccc1C(=O)O` [o-methoxybenzoate]: the “tolerance to aromatic carboxylic acids” value in [3] is listed as “as tolerant as the wild-type”. For the same compound, the “concentration that the strain tolerated” value in data set [1] turned out to be 8.5 g/L; in data set [2], 17 g/L.

On to `CCCCCCC` [heptane], for which, in data set [6], the “log Pow” value is reported as 4.5.

For the compound `CC(=O)O` [acetate], the “acetate concentration at which the adapted strain was able to grow” value in [7] stood at 200 mM.

As for `CC[C@H]1OC(=O)[C@H](C)[C@@H](O[C@H]2C[C@@](C)(OC)[C@@H](O)[C@H](C)O2)[C@H](C)[C@@H](O[C@@H]2O[C@H](C)C[C@H](N(C)C)[C@H]2O)[C@](C)(O)C[C@@H](C)C(=O)[C@H](C)[C@@H](O)[C@]1(C)O` [erythromycin], the “tolerance/sensitivity to antibiotic” value in data set [5] is “tolerant”.

As for `CN(C)[C@@H]1C(O)=C(C(N)=O)C(=O)[C@@]2(O)C(O)=C3C(=O)c4c(O)cccc4[C@@](C)(O)[C@H]3C[C@@H]12` [TE, tetracycline], the “size of the inhibition halo” value in data set [5] is listed as 21 mm.

`CO/N=C(\C(=O)N[C@@H]1C(=O)N2C(C(=O)O)=C(COC(C)=O)CS[C@H]12)c1csc(N)n1` [CTX, cefotaxime]: in data set [5], the “size of the inhibition halo” value is listed as 14 mm and the “tolerance/sensitivity to antibiotic” value was “sensitive”.

For the compound `C1CCCCC1` [cyclohexane], the “log Pow” value in data set [6] is listed as 3.2.

On to `O=C(O)c1ccccc1Cl` [o-chlorobenzoate], for which, in data set [3], the “tolerance to aromatic carboxylic acids” value is on record as “as tolerant as the wild-type”. In addition, the “concentration that the strain tolerated” value in [1] came out at 6.0 g/L; in data set [2] it was 14.5 g/L.

As for `CN[C@H](CC(C)C)C(=O)N[C@H]1C(=O)N[C@@H](CC(N)=O)C(=O)N[C@H]2C(=O)N[C@H]3C(=O)N[C@H](C(=O)N[C@H](C(=O)O)c4cc(O)cc(O)c4-c4cc3ccc4O)[C@H](O)c3ccc(c(Cl)c3)Oc3cc2cc(c3O[C@@H]2O[C@H](CO)[C@@H](O)[C@H](O)[C@H]2O[C@H]2C[C@](C)(N)[C@H](O)[C@H](C)O2)Oc2ccc(cc2Cl)[C@H]1O` [vancomycin], the “tolerance/sensitivity to antibiotic” value in data set [5] was “tolerant”.

Turning to `Nc1ccccc1C(=O)O` [o-aminobenzoate], the “tolerance to aromatic carboxylic acids” value in data set [3] was “as tolerant as the wild-type”. Moreover, the results for the “concentration that the strain tolerated” value in data set [1] and in data set [2] were 5.0 g/L and 8.7 g/L, respectively.

Regarding `O=C(O)c1cccc(Cl)c1` [m-chlorobenzoate], in data set [3], the “tolerance to aromatic carboxylic acids” value is listed as “as tolerant as the wild-type”. Further, the “concentration that the strain tolerated” value in data set [1] is 3.0 g/L; in [2], 4.5 g/L.

Take `COc1cccc(C(=O)O)c1` [m-methoxybenzoate]: the “tolerance to aromatic carboxylic acids” value in data set [3] was “as tolerant as the wild-type”. Moreover, the “concentration that the strain tolerated” value in data set [1] is 7.2 g/L; in data set [2] it was 12 g/L.

As for `CC1(C)S[C@@H]2[C@H](NC(=O)[C@H](N)c3ccccc3)C(=O)N2[C@H]1C(=O)O` [ampicillin], the “tolerance/sensitivity to antibiotic” value in [5] is “tolerant”.

In the case of `CCn1cc(C(=O)O)c(=O)c2cc(F)c(N3CCNCC3)cc21` [NOR, norfloxacine], in data set [5], the “size of the inhibition halo” value is listed as 20 mm and the “tolerance/sensitivity to antibiotic” value is recorded as “sensitive”.

As to `CCCc1ccccc1` [propylbenzene], the “log Pow” value in [6] is 3.6.

For the compound p-methoxybenzoate, the “tolerance to aromatic carboxylic acids” value in [3] is reported as “as tolerant as the wild-type”. Also, the entries for the “concentration that the strain tolerated” value in data set [1] and in data set [2] were 9.1 g/L and 19 g/L, respectively.

Regarding `CCn1cc(C(=O)O)c(=O)c2ccc(C)nc21` [NA, nalidixic acid], in data set [5], the “size of the inhibition halo” value is reported as 15 mm and the “tolerance/sensitivity to antibiotic” value is listed as “equally sensitive”.

Regarding `Nc1cccc(C(=O)O)c1` [m-aminobenzoate], in data set [3], the “tolerance to aromatic carboxylic acids” value is given as “as tolerant as the wild-type”. Moreover, the entries for the “concentration that the strain tolerated” value in data set [1] and in [2] were 7.5 g/L and 14.8 g/L, respectively.

On to `Cc1ccc(C)cc1` [p-xylene], for which the “log Pow” value in data set [6] is reported as 3.0.

With `Cc1ccc(C(=O)O)cc1` [p-methylbenzoate], in data set [3], the “tolerance to aromatic carboxylic acids” value is recorded as “as tolerant as the wild-type”. Also, the results for the “concentration that the strain tolerated” value in data set [1] and in [2] were 7.4 g/L and 14.5 g/L, respectively.

Turning to `CCN1CCN(C(=O)N[C@@H](C(=O)N[C@@H]2C(=O)N3[C@@H]2SC(C)(C)[C@@H]3C(=O)O)c2ccccc2)C(=O)C1=O` [PIP, piperacillin], in [5], the “size of the inhibition halo” value worked out at 18 mm and the “tolerance/sensitivity to antibiotic” value is “equally sensitive”.

With `O=C(O)C(NCCNC(C(=O)O)c1ccccc1O)c1ccccc1O` (centres unmarked) [EDDHA, ethylenediamine-di (o-hydroxyphenylacetic acid)], the “growth in the presence of iron chelator” value in data set [8] is given as “severely inhibited”; in [9], “grew under all culture conditions”.

For the compound gentamycin [GM], in [5], the “size of the inhibition halo” value stood at 17 mm and the “tolerance/sensitivity to antibiotic” value was “equally sensitive”.

Turning to `Nc1ccc(C(=O)O)cc1` [p-aminobenzoate], the “tolerance to aromatic carboxylic acids” value in [3] is recorded as “as tolerant as the wild-type”. Further, the “concentration that the strain tolerated” value in [1] is reported as 7.8 g/L; in data set [2], 13.0 g/L.

As to `COC(=O)c1ccc(O)cc1` [MB, methylparabene], the tolerance to paraben in data set [3] is listed as over 2.0 g/L; in data set [3] (listed as methylparaben) it was “as tolerant as the wild-type strain”; in data set [1] it was 1.0 g/L; in data set [1] (listed as methylparaben), “about 1 g/L”; in data set [2] it was over 2 g/L; in [4], over 2 g/L.

Turning to `C[C@@H](O)[C@H]1C(=O)N2C(C(=O)O)=C(SCCN=CN)C[C@H]12` [IPM, imipenen], in [5], the “size of the inhibition halo” value is on record as 26 mm and the “tolerance/sensitivity to antibiotic” value is on record as “sensitive”.

On to `N[C@@H](Cc1c[nH]c2ccccc12)C(=O)O` [Tryptophan, L-tryptophan], for which the “tolerance to amino acid” value is 22.9 g/L in data set [3]; “more sensitive than the wild-type” in data set [3] (listed as tryptophan); 23.5 g/L in data set [1]; “about 23 g/L” in data set [1] (listed as tryptophan); 35.3 g/L in data set [2]; about 35 g/L in [2] (listed as tryptophan). Moreover, in data set [4], the “tolerance to amino acid” value amounted to 38.8 g/L.

For `N[C@@H](Cc1c[nH]cn1)C(=O)O` [Histidine, L-histidine], the “tolerance to amino acid” value is 29.4 g/L in data set [3]; 22.3 g/L in data set [1]; “about 23 g/L” in [1] (listed as histidine); 31.2 g/L in [2]; about 31 g/L in data set [2] (listed as histidine); 30.6 g/L in data set [4].
